Source: patent US12116357B2, “Heteroaryl-triazole and heteroaryl-tetrazole compounds as pesticides” (Bayer Aktiengesellschaft, priority 2018, dated 2024)

Tests used:
Format in all cases: in vivo
[1] = tested on: Nezara viridula; test: Nezara viridula spray test; details: 96 h
Method: (§1) • Solvent: 78.0 parts by weight of acetone • 1.5 parts by weight of dimethylformamide • Emulsifier: alkylarylpolyglycol ether
To produce a suitable preparation of active compound, 1 part by weight of active compound is mixed with the stated amount of solvent, and the concentrate is diluted with water, containing an emulsifier concentration of 1000 ppm, to the desired concentration. Further test concentrations are prepared by dilution with emulsifier containing water.
Barley plants (Hordeum vulgare) infested with larvae of the southern green stink bug (Nezara viridula) are sprayed with a test solution containing the desired concentration of the active ingredient.
After 4 days mortality in % is determined. 100% means all the stink bugs have been killed; 0% means none of the stink bugs have been killed.

[2] = tested on: Phaedon cochleariae; test: Phaedon cochleariae spray test; details: 168 h, after 7 days
Method: as §1
(§2) To produce a suitable preparation of active compound, 1 part by weight of active compound is mixed with the stated amount of solvents and is diluted with water, containing an emulsifier concentration of 1000 ppm, to the desired concentration. Further test concentrations are prepared by dilution with emulsifier containing water.
Chinese cabbage (Brassica pekinensis) leaf disks are sprayed with a preparation of the active ingredient of the desired concentration. Once dry, the leaf disks are infested with mustard beetle larvae (Phaedon cochleariae).
After 7 days mortality in % is determined. 100% means all beetle larvae have been killed and 0% means none of the beetle larvae have been killed.

[3] = tested on: Ctenocephalides felis; test: Ctenocephalides felis oral test; details: 48 h, 100 ppm in cattle blood, after 2 days
Method: (§3) • Solvent: dimethyl sulfoxide
To produce a suitable preparation of active compound, 10 mg of active compound are dissolved in 0.5 ml solvent, and the concentrate is diluted with cattle blood to the desired concentration.
Approximately 20 adult unfed cat fleas (Ctenocephalides felis) are placed in flea chambers. The blood chamber, sealed with parafilm on the bottom, are filled with cattle blood supplied with compound solution and placed on the gauze covered top of the flea chamber, so that the fleas are able to suck the blood. The blood chamber is heated to 37° C. whereas the flea chamber is kept at room temperature.
After 2 days mortality in % is determined. 100% means all the fleas have been killed; 0% means none of the fleas have been killed.

[4] = tested on: Rhipicephalus sanguineus; test: Rhipicephalus sanguineus in-vitro contact test, adult brown dog ticks
Method: (§4) 9 mg compound is solved in 1 ml acetone and diluted with acetone to the desired concentration. 250 μl of the test solution is filled in 25 ml glass test tubes and homogeneously distributed on the inner walls by rotation and tilting on a shaking device (2 h at 30 rpm). With a compound concentration of 900 ppm, an inner surface of 44.7 cm^2 and a homogeneous distribution, a dose of 5 μg/cm^2 is achieved.
After the solvent has evaporated, each test tube is filled with 5-10 adult brown dog ticks (Rhipicephalus sanguineus), closed with a perforated lid and incubated in a lying position at room temperature and relative humidity. After 48 hours efficacy is determined. The ticks are patted on the ground of the tubes and are incubated on a heating plate at 45-50° C. for at most 5 minutes. Immotile or uncoordinated moving ticks, which are not able to escape the heat by climbing upwards, are marked as dead or moribund.
An efficacy of 100% means all ticks are dead or moribund; 0% means no ticks are dead or moribund.

[5] = tested on: Spodoptera frugiperda; test: Spodoptera frugiperda spray test; details: 168 h
Method: (§5) • Solvent: 78.0 parts by weight acetone • 1.5 parts by weight dimethylformamide • Emulsifier: alkylarylpolyglycol ether
as §2
Maize (Zea mays) leaf sections are sprayed with a preparation of the active ingredient of the desired concentration. Once dry, the leaf sections are infested with fall armyworm larvae (Spodoptera frugiperda).
After 7 days mortality in % is determined. 100% means all caterpillars have been killed and 0% means none of the caterpillars have been killed.

[6] = tested on: Boophilus microplus; test: Boophilus microplus injection test; details: Rhipicephalus microplus, 168 h, 20 μg/animal, egg deposition after 7 days, read-out: efficacy (infertile eggs)
Method: as §3
To produce a suitable preparation of active compound, 10 mg of active compound are dissolved in 0.5 ml solvent, and the concentrate is diluted with solvent to the desired concentration.
Five adult engorged female ticks (Boophilus microplus) are injected with 1 μl compound solution into the abdomen. The ticks are transferred into replica plates and incubated in a climate chamber.
After 7 days egg deposition of fertile eggs is monitored. Eggs where fertility is not visible are stored in a climate chamber till hatching after about 42 days. An efficacy of 100% means all eggs are infertile; 0% means all eggs are fertile.

[7] = tested on: Myzus persicae; test: Myzus persicae oral test; details: 120 h
Method: • Solvent: 100 parts by weight acetone
To produce a suitable preparation of active compound, 1 part by weight of active compound is mixed with the stated amount of solvent, and the concentrate is diluted with water to the desired concentration. 50 μl compound solution is filled in microtiter plates and 150 μl IPL41 insect medium (33%+15% sugar) is added to obtain a total volume of 200 μl per well. Afterwards the plates are sealed with parafilm through which a mixed population of the green peach aphid (Myzus persicae) can suck on the compound preparation.
(§6) After 5 days mortality in % is determined. 100% means all aphids have been killed and 0% means none of the aphids have been killed.

[8] = tested on: Nilaparvata lugens; test: Nilaparvata lugens spray test; details: 96 h
Method: as §1, §2
Rice plants (Oryza sativa) are sprayed with a preparation of the active ingredient of the desired concentration and the plants are infested with the brown planthopper (Nilaparvata lugens).
After 4 days mortality in % is determined. 100% means all planthoppers have been killed and 0% means none of the planthoppers have been killed.

[9] = tested on: Ctenocephalides felis; test: Ctenocephalides felis in-vitro contact test, adult cat flea; details: 5 μg/cm^2, after 48 hours, read-out: efficacy (fleas dead or moribund)
Method: as §4
After the solvent has evaporated, each test tube is filled with 5-10 adult cat fleas (Ctenocephalides felis), closed with a perforated lid and incubated in a lying position at room temperature and relative humidity. After 48 hours efficacy is determined. The fleas are patted on the ground of the tubes and are incubated on a heating plate at 45-50° C. for at most 5 minutes. Immotile or uncoordinated moving fleas, which are not able to escape the heat by climbing upwards, are marked as dead or moribund.
An efficacy of 100% means all fleas are dead or moribund; 0% means no fleas are dead or moribund.

[10] = tested on: Anopheles funestus strain FUMOZ-R; test: Anopheles funestus test (surface treatment & contact assay); details: surface concentration 20 mg/m^2, 30 min exposure, 24 hours after contact, read-out: efficacy (mortality)
Method: (§7) • Solvent: Aceton+2000 ppm rapeseed oil methyl ester (RME)
In order to produce a sufficient, active ingredient containing solution it is necessary to solve the test compound in the solvent-mix (acetone at 2 mg/ml/RME 2000 ppm). This solution is pipetted onto a glazed tile and after evaporation of the acetone, adult mosquitoes of the species Anopheles funestus strain FUMOZ-R (Hunt et al., Med. Vet. Entomol. 2005 September; 19(3): 271-275) are placed onto the dried surface. The exposure time is 30 minutes.
(§8) Mortality in percent (%) is determined 24 hours after contact of the insects to the treated surface. 100% mortality means that all tested insects are dead, whereas 0% means that no insect died.

[11] = tested on: Myzus persicae; test: Myzus persicae spray test; details: 120 h
Method: as §5, §2
Chinese cabbage (Brassica pekinensis) leaf disks infected with all instars of the green peach aphid (Myzus persicae), are sprayed with a preparation of the active ingredient of the desired concentration.
as §6

[12] = tested on: Aedes aegypti strain MONHEIM; test: Aedes aegypti test (surface treatment & contact assay); details: 24 hours after contact, read-out: efficacy (mortality); for mortality at 4 mg/m2: surface concentration 4 mg/m^2, 30 min exposure; for mortality at 20 mg/m2: surface concentration 20 mg/m^2, 30 min exposure
Method: as §7
In order to produce a sufficient, active ingredient containing solution it is necessary to solve the test compound in the solvent-mix (acetone at 2 mg/ml/RME 2000 ppm). This solution is pipetted onto a glazed tile and after evaporation of the acetone, adult mosquitoes of the species Aedes aegypti strain MONHEIM are placed onto the dried surface. The exposure time is 30 minutes.
as §8

[13] = tested on: Musca domestica strain WHO-N; test: Musca domestica test (surface treatment & contact assay); details: 24 hours after contact, read-out: efficacy (mortality); for mortality at 4 mg/m2: surface concentration 4 mg/m^2, 30 min exposure; for mortality at 20 mg/m2: surface concentration 20 mg/m^2, 30 min exposure
Method: as §7
In order to produce a sufficient, active ingredient containing solution it is necessary to solve the test compound in the solvent-mix (acetone at 2 mg/ml/RME 2000 ppm). This solution is pipetted onto a glazed tile and after evaporation of the acetone, adult flies of the species Musca domestica strain WHO-N are placed onto the dried surface. The exposure time is 30 minutes.
as §8

[14] = tested on: Culex quinquefasciatus strain P00; test: Culex quinquefasciatus test (surface treatment & contact assay); details: 24 hours after contact, read-out: efficacy (mortality); for mortality at 20 mg/m2: surface concentration 20 mg/m^2, 30 min exposure
Method: as §7
In order to produce a sufficient, active ingredient containing solution it is necessary to solve the test compound in the solvent-mix (acetone at 2 mg/ml/RME 2000 ppm). This solution is pipetted onto a glazed tile and after evaporation of the acetone, adult mosquitoes of the species Culex quinquefasciatus strain P00 are placed onto the dried surface. The exposure time is 30 minutes.
as §8

Row | Compound | mortality at 500 g/ha [1] [%] | mortality at 500 g/ha [2] [%] | mortality at 100 ppm [3] [%] | efficacy (ticks dead or moribund) ([4]; 1 μg/cm^2, after 48 hours) [%] | efficacy (ticks dead or moribund) ([4]; 5 μg/cm^2, after 48 hours) [%] | mortality at 500 g/ha [5] [%] | pest or weed control at 0.02 mg [6] [%] | mortality at 4 ppm [7] [%] | mortality at 20 ppm [7] [%] | mortality at 500 g/ha [8] [%] | pest or weed control at 5 µg/cm2 [9] [%] | mortality at 20 mg/m2 [10] [%] | mortality at 500 g/ha [11] [%] | mortality at 4 mg/m2 [12] [%] | mortality at 20 mg/m2 [12] [%] | mortality at 4 mg/m2 [13] [%] | mortality at 20 mg/m2 [13] [%] | mortality at 20 mg/m2 [14] [%] | mortality at 4 mg/m2 ([14]; surface concentration 4 mg/m^2, 30 min exposure) [%]
1 | COCCN(C(=O)c1cc(Cl)cc(C(F)(F)F)c1)C(C)c1ncnn1-c1ncccn1 (stereo not shown) [Example I-005] | 90 | 100 | 100 | 80 | 80 | 100 | 100 | 100 | 100 |  |  |  |  |  |  |  |  |  | 
2 | CON(C(=O)c1cccc(C(F)(F)F)c1)C(C)c1ncnn1-c1ncccn1 (stereo not shown) [Example I-028] | 100 |  |  | 80 | 100 |  | 100 |  |  | 100 |  |  |  |  |  |  |  |  | 
3 | CCON(C(=O)c1cccc(C(F)(F)F)c1)C(C)c1ncnn1-c1ncccn1 (stereo not shown) [Example I-029] | 100 |  | 80 |  | 80 |  | 100 | 100 |  |  | 100 |  |  |  |  |  |  |  | 
4 | CC(c1ncnn1-c1ncccn1)N(Cc1ccc(Cl)nc1)C(=O)c1cc(Cl)cc(C(F)(F)F)c1 (stereo not shown) [Example I-030] | 100 |  | 100 |  |  | 100 | 100 | 100 |  | 100 | 90 | 85 to 100 | 100 | 80 to 100 | 90 to 100 | 90 to 100 | 90 to 100 | 90 to 100 | 
5 | COCCN(C(=O)c1cc(Cl)cc(S(C)(=O)=O)c1)C(C)c1ncnn1-c1ncccn1 (stereo not shown) [Example I-031] | 100 |  | 100 |  |  |  | 100 | 100 |  | 100 | 80 | 85 to 100 | 100 |  |  |  |  |  | 
6 | CSCCN(C(=O)c1cc(Cl)cc(C(F)(F)F)c1)C(C)c1ncnn1-c1ccc(C#N)cn1 (stereo not shown) [Example I-033] | 100 |  |  |  |  | 100 |  | 100 |  |  | 100 | 85 to 100 | 90 | 80 to 100 | 90 to 100 | 90 to 100 | 90 to 100 | 90 to 100 | 
7 | CSCCN(C(=O)c1cc(C(F)(F)F)cc(C(F)(F)F)c1)C(C)c1ncnn1-c1ccc(C#N)cn1 (stereo not shown) [Example I-034] | 100 |  |  |  |  | 100 |  | 100 |  |  | 100 | 85 to 100 | 100 |  | 90 to 100 | 90 to 100 | 90 to 100 | 90 to 100 | 85 to 100
